# Source: patent US20090054403A1, “Treatment of Post-Traumatic Stress Disorder” (priority 2007, published 2009)
# System: mice
# Assay: Clinical observations, behavioral tests and rectal temperature after single oral dose
# Type: in vivo
# Conditions: 30, 100, 300 mg/kg single oral, from 60 min
# Procedure: A single oral dose of vehicle or Nepicastat formulation was administered by gavage to each mouse using a rodent intubator. The oral route was selected because it is a proposed clinical route of administration. Dose volumes were calculated on the basis of individual body weights recorded before dosing (body weight data are not tabulated in this report). Food and water were withheld from the mice 2.5 to 3.5 hours before dosing, instead of 1.5 hours as specified in the protocol.
# Clinical observations were recorded before dosing. Beginning 60 minutes after dosing, mice in each treatment group were evaluated in groups of up to 3 over an interval of approximately 10 minutes each for clinical observations and protocol-specified behavioral tests.^1 One mouse in the 30-mg/kg group and 1 mouse in the 100-mg/kg group died after dosing and they were removed from the study. Surviving mice were euthanatized and removed from the study at the end of the observation/testing period.
# Mice in groups of 6 males each were administered single oral doses of 0 (vehicle), 30, 100, or 300 mg/kg of nepicastat by gavage. Clinical observations and behavioral tests were initiated 60 minutes after administration of the test formulation. At the end of the observation period, all surviving mice were euthanatized and removed from the study.
smiles,measurement,value
"Cl.NCc1c[nH]c(=S)n1[C@H]1CCc2c(F)cc(F)cc2C1 [nepicastat, (S)-5-Aminomethyl-1-(5,7-difluoro-1,2,3,4-tetrahydronaphth-2-yl)-2,3-dihydro-2-thioxo-1H-imidazole hydrochloride]",clinical or gross behavior changes,No treatment-related clinical or gross behavior changes
same,rectal body temperature vs vehicle-control,Lower body temperatures
